These results are taken from patent US20220257592A1, “METHODS OF TREATING CANCER” (HOFFMANN-LA ROCHE INC., priority 2019, published 2022).

Data set [1] addresses cytochrome P450 3A4 (CYP3A4) (Homo sapiens, UniProt P08684). In words: In vitro metabolism studies. In kind it is in vitro ADME.
A further data set addresses TrkC (Homo sapiens, UniProt Q16288). The conditions noted are these: cited from earlier work.

As to `CN1CCN(c2ccc(C(=O)Nc3n[nH]c4ccc(Cc5cc(F)cc(F)c5)cc34)c(NC3CCOCC3)c2)CC1` [Entrectinib, N-[5-(3,5-difluorobenzyl)-1H-indazol-3-yl]-4-(4-methyl-piperazin-1-yl)-2-(tetrahydro-pyran-4-ylamino)-benzamide], the CYP3A4 substrate status result in data set [1] was “sensitive substrate of CYP3A4”. For the same molecule, in data set [1] (in vitro studies), the route of clearance result was “predominantly through hepatic metabolism” and the “share of metabolism by CYP3A4” value is about 76%. The “inhibition of TrkC tyrosine kinase” value at TrkC is recorded as “potent inhibitor”.
